Source: US4833257A, “Compositions of matter and methods of using same” (Arizona Board of Regents, priority 1986, dated 1989)
Converted amounts (≈) assume the structure as drawn. Read-outs that look alike come from different tables or passages of the source.

Key:
[1] = tested on: P388 lymphocytic leukemia (PS cell line); assay: P388 lymphocytic leukemia (PS) cell line growth inhibition; type: cell-based, murine; conditions: Mus musculus
Text: (§1) The isolation and purification methods chosen can be monitored at each step by performing in-vitro and/or in-vivo antitumor tests as described by R. I. Geran, N. H. Greenberg, M. M. MacDonald, A. M. Schumacher and B. S. Abbot in Cancer Chemother. Rep. Part 3, Vol 3: 1-103 (1972); and by Schmidt, J. M.; Pettit, G. R. in Experientia 1978, 34: 659-660. Such tests include the determination of the concentration of active material required to inhibit the growth of tumor cells in culture, (e.g. the concentration required to inhibit growth by 50 percent or the E.D.50) and of the dose of active material required to prolong the life of mice bearing transplanted tumors. The chemical structures of the bryostatins of the present invention are shown below and the physical characteristics are reported in the pertinent examples. The structures are: [drawing 2]

[2] = tested on: P388 lymphocytic leukemia and other NCI test systems; assay: cell growth inhibitory and antineoplastic activity against P388 lymphocytic leukemia and other NCI test systems; set-up: species or system murine
Text: as §1

[3] = tested on: P388 lymphocytic leukemia (PS system); assay: in vivo antitumor test in mice bearing P388 lymphocytic leukemia (PS system), life extension / T/C
Text: as §1

[4] = P388 lymphocytic leukemia cell line, read-out: PS cell line growth inhibition ED50

| SMILES | IC50 ([1]; P388 lymphocytic leukemia, growth inhibition, read-out: PS ED50) [ng/mL] | cell growth inhibitory and antineoplastic activity [2] | life extension ([3]; at 80 μg/kg) [%] | IC50 [1, 4] [ng/mL] | in vivo growth inhibition ([3]; at 92.5 μg/kg) [%] | life extension ([3]; at 30-50 μg/kg) |
| --- | --- | --- | --- | --- | --- | --- |
| CCCC(=O)O[C@H]1/C(=C/C(=O)OC)C[C@H]2C[C@H]([C@@H](C)O)OC(=O)C[C@H](O)C[C@@H]3C[C@H](OC(C)=O)C(C)(C)[C@](O)(C[C@@H]4C/C(=C/C(=O)OC)C[C@H](/C=C/C(C)(C)[C@]1(O)O2)O4)O3 [Bryostatin 9] | 1.2 (≈ 1.41 nM) | substantial cell growth inhibitory and antineoplastic activity | 40 | – | – | – |
| COC(=O)/C=C1/C[C@H]2C[C@]3(O)O[C@H](C[C@@H](O)CC(=O)O[C@@H]([C@@H](C)O)C[C@@H]4C/C(=C\C(=O)OC)C[C@@](O)(O4)C(C)(C)/C=C/[C@@H](C1)O2)C[C@H](OC(C)=O)C3(C)C [Bryostatin 11] | – | substantial cell growth inhibitory and antineoplastic activity | – | 0.018 (≈ 0.0235 nM) | 64 | – |
| CCC/C=C/C=C/C(=O)O[C@H]1/C(=C/C(=O)OC)C[C@H]2C[C@H]([C@@H](C)O)OC(=O)C[C@H](O)C[C@@H]3C[C@H](OC(=O)CCC)C(C)(C)[C@](O)(C[C@@H]4C/C(=C/C(=O)OC)C[C@H](/C=C/C(C)(C)[C@]1(O)O2)O4)O3 [Bryostatin 12] | – | substantial cell growth inhibitory and antineoplastic activity | – | 14 (≈ 15 nM) | – | 47-68% |
| CCCC(=O)O[C@H]1C[C@H]2C[C@@H](O)CC(=O)O[C@@H]([C@@H](C)O)C[C@@H]3C/C(=C\C(=O)OC)C[C@@](O)(O3)C(C)(C)/C=C/[C@H]3C/C(=C\C(=O)OC)C[C@@H](C[C@](O)(O2)C1(C)C)O3 [Bryostatin 13] | – | substantial cell growth inhibitory and antineoplastic activity | – | 5.4 (≈ 6.79 nM) | – | – |
